Measured values taken from patent US20070093520A1, “Method of treatment of diarrhea-predominant irritable bowel syndrome in a subject” (priority 2005, published 2007).

Test system: diarrhea-predominant IBS subjects
Experiment: 3007 Study: open-label 52-week safety study, adverse events and withdrawals
Conditions: Overall

Cc1nccn1C[C@H]1CCc2c(c3cccc4c3n2CCC4)C1=O [cilansetron, (R)-(−)-4,5,6,8,9,10-hexahydro-10-[(2-methyl-1H-imidazol-1-yl)methyl]-11H-pyrido-[3,2,1-jk]-carbazol-11-one]
TEAE: Atopic Disorders: 5 (<1%) n (%) | TEAE: Atrial Fibrillation: 1 (<1%) n (%) | TEAE: Atrioventricular Block First Degree: 1 (<1%) n (%) | TEAE: Back Injury NOS: 3 (<1%) n (%) | TEAE: Back Pain: 18 (3%) n (%) | TEAE: Back Pain Aggravated: 3 (<1%) n (%) | TEAE: Bacteria Identification and Serology (Excl Mycobacteria): 1 (<1%) n (%) | TEAE: Basal Cell Carcinoma: 6 (1%) n (%) | TEAE: Behaviour and Socialisation Disturbances: 1 (<1%) n (%) | TEAE: Benign Ovarian Tumour*: 1 (<1%) n (%) | TEAE: Biliary Tract Disorder NOS: 1 (<1%) n (%) | TEAE: Bilirubin Urine: 1 (<1%) n (%) | TEAE: Binocular Eye Movement Disorder NOS: 1 (<1%) n (%) | TEAE: Bladder Disorders NEC: 1 (<1%) n (%) | TEAE: Bladder Infection NOS: 1 (<1%) n (%) | TEAE: Bladder Infections and Inflammations: 1 (<1%) n (%) | TEAE: Bladder Prolapse: 1 (<1%) n (%) | TEAE: Bladder and Urethral Symptoms: 7 (1%) n (%) | TEAE: Blood Alkaline Phosphatase NOS Increased: 3 (<1%) n (%) | TEAE: Blood Bilirubin Increased: 4 (<1%) n (%) | TEAE: Blood Cholesterol Increased: 19 (4%) n (%) | TEAE: Blood Creatine Phosphokinase Increased: 27 (5%) n (%) | TEAE: Blood Creatine Phosphokinase Mb Increased: 1 (<1%) n (%) | TEAE: Blood Creatinine Increased: 4 (<1%) n (%) | TEAE: Blood Glucose Increased: 2 (<1%) n (%) | TEAE: Blood Potassium Increased: 1 (<1%) n (%) | TEAE: Blood Pressure Increased: 5 (<1%) n (%) | TEAE: Blood Sodium Increased: 1 (<1%) n (%) | TEAE: Blood Triglycerides Increased: 10 (2%) n (%) | TEAE: Blood Uric Acid Increased: 2 (<1%) n (%) | TEAE: Blood Urine Present: 10 (2%) n (%) | TEAE: Blood and Lymphatic System Disorders: 5 (<1%) n (%) | TEAE: Blood in Stool: 8 (1%) n (%) | TEAE: Bone Density Decreased: 1 (<1%) n (%) | TEAE: Bone Disorder NOS: 1 (<1%) n (%) | TEAE: Bone Disorders NEC: 3 (<1%) n (%) | TEAE: Bone Injury: 1 (<1%) n (%) | TEAE: Bone Neoplasm Malignant: 1 (<1%) n (%) | TEAE: Bone Neoplasms Malignant (Excl Sarcomas): 1 (<1%) n (%) | TEAE: Bone Spur: 1 (<1%) n (%) | TEAE: Bradyarrhythmia: 1 (<1%) n (%) | TEAE: Breast Calcifications*: 1 (<1%) n (%) | TEAE: Breast Cancer NOS*: 2 (<1%) n (%) | TEAE: Breast Disorder NOS*: 1 (<1%) n (%) | TEAE: Breast Disorders NEC*: 5 (1%) n (%) | TEAE: Breast Mass NOS*: 3 (<1%) n (%) | TEAE: Breast and Nipple Neoplasms Malignant*: 2 (<1%) n (%) | TEAE: Breath Sounds Decreased: 1 (<1%) n (%) | TEAE: Breathing Abnormalities: 3 (<1%) n (%) | TEAE: Bronchitis Acute NOS: 3 (<1%) n (%) | TEAE: Bronchitis NOS: 23 (4%) n (%) | TEAE: Bronchopneumonia NOS: 1 (<1%) n (%) | TEAE: Bronchospasm and Obstruction: 4 (<1%) n (%) | TEAE: Bruising, Ecchymosis and Purpura: 1 (<1%) n (%) | TEAE: Bundle Branch Block Right: 1 (<1%) n (%) | TEAE: Bunion: 2 (<1%) n (%) | TEAE: Bursal Disorders: 6 (1%) n (%) | TEAE: Bursitis: 3 (<1%) n (%) | TEAE: Calculus Renal NOS: 3 (<1%) n (%) | TEAE: Calculus Ureteric: 1 (<1%) n (%) | TEAE: Candida Infections: 4 (<1%) n (%) | TEAE: Candidal Infection NOS: 2 (<1%) n (%) | TEAE: Carbohydrate Tolerance Analyses (Incl Diabetes): 2 (<1%) n (%) | TEAE: Cardiac Auscultatory Investigations: 1 (<1%) n (%) | TEAE: Cardiac Conduction Disorders: 2 (<1%) n (%) | TEAE: Cardiac Disorders: 16 (3%) n (%) | TEAE: Cardiac Fibrillation NOS: 1 (<1%) n (%) | TEAE: Cardiac Flutter: 1 (<1%) n (%) | TEAE: Cardiac Murmur NOS: 1 (<1%) n (%) | TEAE: Cardiac Signs and Symptoms NEC: 4 (<1%) n (%) | TEAE: Carotid Bruit: 1 (<1%) n (%) | TEAE: Carpal Tunnel Syndrome: 3 (<1%) n (%) | TEAE: Cartilage Disorder NOS: 1 (<1%) n (%) | TEAE: Cartilage Disorders: 1 (<1%) n (%) | TEAE: Cataract Unilateral: 1 (<1%) n (%) | TEAE: Cataracts (Excl Congenital): 2 (<1%) n (%) | TEAE: Cellulitis: 1 (<1%) n (%) | TEAE: Cerumen Impaction: 2 (<1%) n (%) | TEAE: Cervical Spasm: 1 (<1%) n (%) | TEAE: Change in Bowel Habit NOS: 1 (<1%) n (%) | TEAE: Chapped Lips: 1 (<1%) n (%) | TEAE: Chest Discomfort: 1 (<1%) n (%) | TEAE: Chest Pain: 7 (1%) n (%) | TEAE: Chest Tightness: 1 (<1%) n (%) | TEAE: Chest Wall Pain: 2 (<1%) n (%) | TEAE: Cholecystitis and Cholelithiasis: 2 (<1%) n (%) | TEAE: Cholelithiasis: 2 (<1%) n (%) | TEAE: Cholesterol Analyses: 19 (4%) n (%) | TEAE: Colitis (Excl Infective): 1 (<1%) n (%) | TEAE: Colitis Ischaemic: 1 (<1%) n (%) | TEAE: Colonic Polyp: 1 (<1%) n (%) | TEAE: Congenital, Familial and Genetic Disorders: 1 (<1%) n (%) | TEAE: Conjunctival Infections, Irritations and Inflammations: 2 (<1%) n (%) | TEAE: Conjunctivitis: 1 (<1%) n (%) | TEAE: Conjunctivitis Allergic: 1 (<1%) n (%) | TEAE: Connective Tissue Disorders (Excl Le): 4 (<1%) n (%) | TEAE: Constipation: 128 (24%) n (%) | TEAE: Contusion: 3 (<1%) n (%) | TEAE: Cough: 11 (2%) n (%) | TEAE: Coughing and Associated Symptoms: 12 (2%) n (%) | TEAE: Cyst NOS: 1 (<1%) n (%) | TEAE: Cystitis Interstitial: 1 (<1%) n (%) | TEAE: Cystitis NOS: 1 (<1%) n (%) | TEAE: Dacryostenosis Acquired: 1 (<1%) n (%) | TEAE: Deafness NOS: 1 (<1%) n (%) | TEAE: Dehydration: 2 (<1%) n (%) | TEAE: Dental Disorders NEC: 1 (<1%) n (%) | TEAE: Dental Infections - Pathogen Class Unspecified: 11 (2%) n (%) | TEAE: Dental Pain and Sensation Disorders: 3 (<1%) n (%) | TEAE: Depression: 9 (2%) n (%) | TEAE: Depression Aggravated: 4 (<1%) n (%) | TEAE: Depressive Disorders: 13 (2%) n (%) | TEAE: Dermal and Epidermal Conditions NEC: 5 (<1%) n (%) | TEAE: Dermatitis Allergic: 1 (<1%) n (%) | TEAE: Dermatitis Ascribed to Specific Agent: 1 (<1%) n (%) | TEAE: Dermatitis Contact: 2 (<1%) n (%) | TEAE: Dermatitis Medicamentosa: 1 (<1%) n (%) | TEAE: Dermatitis NOS: 1 (<1%) n (%) | TEAE: Dermatitis and Eczema: 6 (1%) n (%) | TEAE: Dermographism: 1 (<1%) n (%) | TEAE: Diabetes Mellitus (Incl Subtypes): 3 (<1%) n (%) | TEAE: Diabetes Mellitus Aggravated: 2 (<1%) n (%) | TEAE: Diabetes Mellitus Non-Insulin-Dependent: 1 (<1%) n (%) | TEAE: Diaphragmatic Hernias: 2 (<1%) n (%) | TEAE: Diarrhoea (Excl Infective): 39 (7%) n (%) | TEAE: Diarrhoea Aggravated: 5 (<1%) n (%) | TEAE: Diarrhoea Haemorrhagic: 2 (<1%) n (%) | TEAE: Diarrhoea NOS: 31 (6%) n (%) | TEAE: Disturbances in Consciousness NEC: 4 (<1%) n (%) | TEAE: Disturbances in Initiating and Maintaining Sleep: 6 (1%) n (%) | TEAE: Diverticulitis NOS: 2 (<1%) n (%) | TEAE: Diverticulum Inflammations: 2 (<1%) n (%) | TEAE: Dizziness: 6 (1%) n (%) | TEAE: Drug Hypersensitivity: 1 (<1%) n (%) | TEAE: Dry Eye NOS: 2 (<1%) n (%) | TEAE: Dry Mouth: 2 (<1%) n (%) | TEAE: Dysarthria: 1 (<1%) n (%) | TEAE: Dysfunctional Uterine Bleeding*: 1 (<1%) n (%) | TEAE: Dyshidrosis: 1 (<1%) n (%) | TEAE: Dyskinesias and Movement Disorders NEC: 1 (<1%) n (%) | TEAE: Dyspepsia: 13 (2%) n (%) | TEAE: Dyspepsia Aggravated: 2 (<1%) n (%) | TEAE: Dyspeptic Signs and Symptoms: 17 (3%) n (%) | TEAE: Dyspnoea NOS: 3 (<1%) n (%) | TEAE: Dysuria: 1 (<1%) n (%) | TEAE: ECG Investigations: 2 (<1%) n (%) | TEAE: Ear Disorders NEC: 2 (<1%) n (%) | TEAE: Ear Infection NOS: 4 (<1%) n (%) | TEAE: Ear Infections: 5 (<1%) n (%) | TEAE: Ear Pain: 2 (<1%) n (%) | TEAE: Ear and Labyrinth Disorders: 10 (2%) n (%) | TEAE: Eczema: 2 (<1%) n (%) | TEAE: Electrocardiogram Qrs Complex Abnormal: 1 (<1%) n (%) | TEAE: Electrocardiogram T Wave Inversion: 1 (<1%) n (%) | TEAE: Elevated Cholesterol: 6 (1%) n (%) | TEAE: Endocrine Disorders: 4 (<1%) n (%) | TEAE: Endometriosis*: 2 (<1%) n (%) | TEAE: Enteritis: 1 (<1%) n (%) | TEAE: Epigastric Discomfort: 1 (<1%) n (%) | TEAE: Eructation: 2 (<1%) n (%) | TEAE: Erythema: 1 (<1%) n (%) | TEAE: Erythemas: 1 (<1%) n (%) | TEAE: External Ear Disorders NEC: 2 (<1%) n (%) | TEAE: Eye Disorders: 13 (2%) n (%) | TEAE: Eye Injuries NEC: 1 (<1%) n (%) | TEAE: Faecal Abnormality NOS: 2 (<1%) n (%) | TEAE: Faecal Impaction: 1 (<1%) n (%) | TEAE: Faecal Incontinence: 4 (<1%) n (%) | TEAE: Faecal Occult Blood Positive: 31 (6%) n (%)
